Like-named read-outs stand apart in the source and are kept apart here. Blank lines part the entries; values can stand above or below the compound they belong to.
Tests used:
UrdPase = target: T1, UrdPase; experiment: Inhibition of uridine phosphorylase in mouse liver cytosol (apparent Ki, Dixon plots); format: biochemical; conditions: for Ki: enzyme from mouse liver cytosol, uridine 1 mM, ± S.D.
T1 construct: The supernatant fluids (cytosol) were collected and used as an enzyme source
Method: (§1) Mouse livers were obtained from female Swiss Albino (CD1) mice weighing 20-24 g (Charles River Laboratories, Boston, Mass.). Mice were sacrificed by cervical dislocation and the livers removed, weighed, minced, and homogenized in ice-cold (3:1, v/w) buffer [20 mM potassium phosphate. pH 8.0; 1 mM dithiothreitol (DTT), 1 mM EDTA] using a Polytron homogenizer (Brinkman Instruments, Westbury, N.J.). The homogenates were centrifuged at 105,000×g for 1 h. at 4° C. The supernatant fluids (cytosol) were collected and used as an enzyme source.
(§2) All assays described below were conducted at 37° C. under conditions where enzyme activity was linear with respect to time and enzyme concentration. For each inhibitor, 5 concentrations were used ranging from […]. Reactions were started by the addition of extract and stopped by boiling in a water bath for 2 minutes followed by freezing, Precipitated proteins were removed by centrifugation. Substrates were separated from products in the supematant by TLC and the radioactivity in the spots was determined on a percentage basis using a Berthold LB-2821 Automatic TLC-Linear Analyzer.
Nucleoside cleavage was measured isotopically by following the formation of nucleobases from their respective nucleosides as previously described. […] The incubation was terminated after 30 min. Uridine and thymidine were separated from their respective nucleobases on silica gel TLC plates developed with CHCl3:MEOH:AcOH (90:5:5, v/v/v). The Rf values were uridine, 0.07; uracil, 0.43; thymidine, 0.14; and thymine, 0.62.
Determination and significance of apparent Ki values was pertbrined using uridine (1 mM) and 5 different concentrations of the inhibitor ranging from […]. Apparent Ki values were estimated from Dixon's plots (1/v vs. [I]) of the data by a computer program with least squares fitting. Apparent Ki, values are related to Ki values by the following equation:
Apparent Ki=Kis(1+[S]/Km)/1+([S]/Km) (Kis/Kii)
where Kis and Kii are inhibition constants that would have been estimated from the replot of slope and intercept, respectively, of a Lineweaver-Burk plots vs. [I]. If a compound is a competitive inhibitor with respect to uridine, Kii=∝ and Kis=Ki. Therefore, the apparent .Ki=Ki(1+[S]1 Km). […] It should be noted, however, that we have not characterized the compounds used in this study with regard to the type of inhibition (competitive, noncompetitive, or uncompetitive) or whether they are substrates for the enzyme.

DHUDase = target: T2, DHUDase (Mus musculus, UniProt Q8CHR6); experiment: Inhibition of dihydrouracil dehydrogenase in mouse liver cytosol (apparent Ki); format: biochemical; conditions: enzyme from mouse liver cytosol; 25 μM uracil; ± S.D.
T2 construct: The supernatant fluids (cytosol) were collected and used as an enzyme source; from tissue; host or cells: mouse liver cytosol (female Swiss Albino CD1 mice)
T2 sequence (Q8CHR6 1-1025): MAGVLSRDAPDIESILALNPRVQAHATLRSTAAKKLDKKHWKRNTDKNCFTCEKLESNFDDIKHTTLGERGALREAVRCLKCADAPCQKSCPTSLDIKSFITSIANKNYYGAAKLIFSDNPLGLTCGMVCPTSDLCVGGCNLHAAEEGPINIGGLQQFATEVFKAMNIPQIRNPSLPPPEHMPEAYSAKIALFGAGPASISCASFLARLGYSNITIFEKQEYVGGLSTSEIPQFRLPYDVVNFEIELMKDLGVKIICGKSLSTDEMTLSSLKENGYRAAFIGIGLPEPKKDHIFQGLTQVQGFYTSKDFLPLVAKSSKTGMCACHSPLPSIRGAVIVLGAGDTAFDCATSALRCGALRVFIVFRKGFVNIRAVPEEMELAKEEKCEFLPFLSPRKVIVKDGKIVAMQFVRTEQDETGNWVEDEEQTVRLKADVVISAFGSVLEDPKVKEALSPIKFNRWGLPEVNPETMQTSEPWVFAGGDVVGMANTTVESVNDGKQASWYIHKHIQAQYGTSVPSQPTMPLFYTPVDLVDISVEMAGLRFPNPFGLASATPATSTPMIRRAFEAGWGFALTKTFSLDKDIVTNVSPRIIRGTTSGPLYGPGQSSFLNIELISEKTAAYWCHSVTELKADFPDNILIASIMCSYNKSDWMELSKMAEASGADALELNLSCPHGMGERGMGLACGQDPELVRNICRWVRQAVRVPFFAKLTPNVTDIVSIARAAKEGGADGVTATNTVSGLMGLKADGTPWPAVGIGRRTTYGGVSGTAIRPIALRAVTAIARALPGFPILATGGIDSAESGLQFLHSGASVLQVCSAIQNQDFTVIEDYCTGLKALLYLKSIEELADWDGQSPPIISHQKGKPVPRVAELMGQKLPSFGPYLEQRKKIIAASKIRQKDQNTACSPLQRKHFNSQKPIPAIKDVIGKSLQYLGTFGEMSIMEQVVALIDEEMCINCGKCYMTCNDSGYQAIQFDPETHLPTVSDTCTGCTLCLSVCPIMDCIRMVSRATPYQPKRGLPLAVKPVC
Method: as §1, §2
The activity of the enzyme was measured by following the formation of dihydrouracil, carbamyl-β-alanine, and β-alanine from [6 -^14C]uracil as previously described. […] DHUDase activity was determined as the sum of the products dihydrouracil, carbamyl-β-alanine, and β-alanine. […]

[1] = Pharmacokinetics of PSAU in CD-1 mice; format: in vivo; conditions: female CD-1 mice; for Cmax / half-life / MRT: mouse, ip, plasma; for Cmax: read-out: Cmax, peak plasma concentration; for half-life: read-out: Apt½, elimination half-life (converted); for MRT: read-out: MRT, mean residence time
Method: PSAU was injected i.p. into female CD-1 mice. At various time intervals, 250 μl of whole blood were collected from the orbital sinuses from three mice by a heparinized Natelson pipet and placed on ice. The whole blood was then centrifuged for 5 minutes to separate the plasma which was kept in a -20° C. freezer until preparation for analysis by the HPLC. The pharmacokinetic parameters were estimated by compartmental model-independent methods using a […]/Base program. The AUC was determined by the trapezoidal rule with extrapolation to time infinity using the terminal disposition slope (K) generated by a weighted nonlinear least-squares regression of an exponential fit of the data, with the weighted square factor set as the reciprocal of the calculated concentration squared. Elimination half-life of uridine was calculated from 0.693/K The total plasma clearance (C1) was calculated by dividing the dose by the AUC and the weight of the mouse. The peak plasma concentration (Cmax) values and time to peak plasma concentration (Tmax) values were observed experimental values. Renal clearance (CLR) of uridine was calculated by dividing the […] by the AUC.

Structure (SMILES): CCOCn1cc([Se]c2ccccc2)c(=O)[nH]c1=O [1-Ethoxymethyl-5-phenylselenenyluracil, 1-(Ethoxymethyl)-5-(phenylselenenyl)uracil]
- Ki (UrdPase): 313 ± 32 µM
- melting point: 143 to 145 °C

Structure (SMILES): O=c1[nH]c(=O)n([C@H]2C[C@H](O)[C@@H](CO)O2)cc1[Se]c1ccccc1 [5-(Phenylselenenyl)-2′-deoxyuridine, 5-(phenylselenenyl)-2′-deoxyuridine]
- Ki (UrdPase): 5.5 ± 0.6 µM

Structure (SMILES): O=c1[nH]c(=O)n([C@@H]2O[C@H](CO)[C@@H](O)[C@H]2O)cc1[Se]c1ccccc1 [5-(Phenylselenenyl)uridine, 5-(phenylselenenyl)uridine]
- Ki (UrdPase): 4 ± 0.2 µM

- Ki (UrdPase): 3.1 ± 0.22 µM
Structure (SMILES): O=c1[nH]c(=O)n(COCCO)cc1Cc1ccccc1 [5-Benzylacyclouridine (BAU), 5-Benzylacyclouridine, reference compound]

Structure (SMILES): O=c1[nH]cc([Se]c2ccccc2)c(=O)[nH]1 [5-Phenylselenenyluracil (PSU), 5-Phenylselenenyluracil]
- Ki (UrdPase): 205 ± 35 µM
- Ki (DHUDase): 4.8 ± 0.6 µM
- melting point: 249 to 251 °C

- Ki (UrdPase): 744 ± 85 µM
- Ki (DHUDase): 5.4 ± 0.6 µM
Structure (SMILES): O=c1[nH]cc(Sc2ccccc2)c(=O)[nH]1 [5-Phenylthiouracil (PTU), 5-(Phenylthio)uracil]

Structure (SMILES): O=c1[nH]c(=O)n(COCCO)c([Se]c2ccccc2)c1F [6-(Phenylselenenyl)acyclo-5-FUrd]
- Ki (UrdPase): 35 ± 5.6 µM

Structure (SMILES): O=c1cc([Se]c2ccccc2)n(COCCO)c(=O)[nH]1 [6-(Phenylselenenyl)acyclouridine, 1-[(2-hydroxyethoxy)methyl]-6-(phenylselenenyl)uridine]
- Ki (UrdPase): 19.3 ± 1.5 µM

Structure (SMILES): O=c1[nH]c(=O)n(COCCO)cc1[Se]c1ccccc1 [PSAU, 1-[(2-Hydroxyethoxy)methyl]-5-(phenylselenenyl)uracil]
- Ki (UrdPase): 3.8 ± 0.8 µM
- ApVd, volume of distribution ([1]; PSAU 30 mg/kg i.p.): 0.331 L/kg
- ApVd, volume of distribution ([1]; PSAU 60 mg/kg i.p.): 0.356 L/kg
- Cmax ([1]; PSAU 30 mg/kg i.p.): 100 µM
- Cmax ([1]; PSAU 60 mg/kg i.p.): 210 µM
- half-life ([1]; PSAU 30 mg/kg i.p.): 0.7 h
- MRT ([1]; PSAU 30 mg/kg i.p.): 1.28 h
- half-life ([1]; PSAU 60 mg/kg i.p.): 1.4 h
- MRT ([1]; PSAU 60 mg/kg i.p.): 2.27 h

- Km (UrdPase; UrdPase from mouse liver, substrate): 66 µM
Structure (SMILES): O=c1ccn([C@@H]2O[C@H](CO)[C@@H](O)[C@H]2O)c(=O)[nH]1 [uridine]
